These results are taken from publication PMC4003389, “Identification of pheromone components and their binding affinity to the odorant binding protein CcapOBP83a-2 of the Mediterranean fruit fly, Ceratitis capitata” (Insect Biochemistry and Molecular Biology, 2014).

The assay concerns the target CcapOBP83a-2 (Ceratitis capitata, UniProt W8W3U3). The assay is described as follows: Binding of fluorescent probe 1-NPN to CcapOBP83a-2 (fluorescence titration). Particulars: for Kd: dissociation constant (KD) of 1-NPN, protein 2 μM, 20 mM Tris–HCl pH 7.4; for saturation level of 1-NPN: protein concentration ≈2 μM. On the procedure: To measure the binding affinity of the fluorescent probe 1-NPN to CcapOBP83a-2, a 2 μM solution of protein in 20 mM Tris–HCl pH 7.4 was titrated with aliquots of 1 mM 1-NPN stock to a final concentration of 0.1–50 μM in methanol. The 1-NPN/protein mixture was excited at 337 nm and the emission was recorded between 380 and 450 nm on a Perkin Elmer LS 55 Fluorescence spectrometer (Cambridge–UK) at 25 °C in a right angle configuration with a 1 cm light path quartz cuvette. The excitation and emission slits were both 5 nm. Data were recorded and graphed using FL WinLab Software (Perkin–Elmer). The affinity of other ligands was measured in competitive binding assays, using 1-NPN as fluorescent reporter at 3 μM concentration and final concentrations of each competitor from 0.1 μM to 50 μM. To determine binding constants, the fluorescent intensity values at the maximum emission (after subtracting those measured without protein) were plotted against free ligand concentrations. […] IC50 values (the concentration of ligand halving the initial fluorescence level) were used to calculate each competitor dissociation constants (KD), by the equation: KD = IC50/1 + [1 − NPN]/K1-NPN, where [1 − NPN] is the free concentration of 1 − NPN and K1-NPN is the dissociation constant of the 1-NPN/protein complex. Analyses were performed by nonlinear regression curve fitting using GraphPad Prism 5 (GraphPad Software, Inc, La Jolla, USA).

Values joined by “and” are separate entries in the source; they are usually repeats but may differ in a detail not shown here. Identical values can stand only once.

CcapOBP83a-2, sequence (W8W3U3 entry or part of it): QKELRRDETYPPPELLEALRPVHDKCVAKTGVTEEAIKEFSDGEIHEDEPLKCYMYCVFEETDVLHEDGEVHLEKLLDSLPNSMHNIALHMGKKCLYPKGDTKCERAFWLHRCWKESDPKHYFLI

The term Kd denotes the constant that tells how readily two partners part at equilibrium. Low readings indicate higher affinity, high ones lower affinity. On to `c1ccc(Nc2cccc3ccccc23)cc1` [1-NPN, N-phenyl-1-naphthylamine], for which the Kd (first fraction of CcapOBP83a-2) amounted to 10500 ± 1400 nM; the Kd (second fraction of CcapOBP83a-2) is 600 nM and 617 nM. The “saturation level of 1-NPN” value was in the range of 10 to 20 µM (first fraction) and 5 to 10 µM (second fraction).
